One data set deals with Bibionidae. Particulars: chronic/long-term; duration: 28 days.
For a further data set, the system named is Oryctolagus sp. To be noted: reproduction developmental; reproduction.
A further data set deals with Rattus norvegicus. To be noted: for NOAEL: clinical chemistry.
The test system of the next data set is Apis mellifera. To be noted: acute, mortality.
Another data set deals with Daphnia magna. To be noted: chronic/long-term; duration: 21 days.
For another data set, the system named is Aphidius rhopalosiphi. In words: LR50; higher = less toxic. To be noted: not reported; mortality.
The test system of a further data set is Typhlodromus pyri. In words: LR50; higher = less toxic. To be noted: not reported; mortality.

Converted amounts (≈) assume the structure as drawn.

This is an account of results in EPA's ToxValDB 9.5 (doi:10.2903/j.efsa.2009.262r).

The NOAEL is the highest tested level that showed no adverse finding.

Consider `CCOP(=O)(SC(C)CC)SC(C)CC` (configuration not stated) [Cadusafos], for which the LC50 was 7.2 mg/kg with Tagia sp. (acute, mortality); 0.13 µg/mL (≈ 0.481 µM) in the data set with Oncorhynchus mykiss (acute, duration: 96 hours, mortality); 10.8 mg/kg-day in the data set with Colinus virginianus (acute, oral, diet, mortality). The NOEC in the data set on Tagia sp. (chronic/long-term) came to 1.8 mg/kg; in the data set with Bibionidae it was 32 µg/kg; with Oncorhynchus mykiss (chronic/long-term, duration: 95 days), 5.22 µg/L; in the data set on Daphnia magna, 0.231 µg/L. Besides, the NOAEL in the data set on Oryctolagus sp. came out at 0.3 mg/kg-day; in the data set with Rattus norvegicus (chronic, duration: 2 years, F), 0.045 mg/kg-day; in the data set with Rattus norvegicus (subchronic, duration: 90 days, oral) it was 0.067 mg/kg-day. The LD50 came to 37.1 mg/kg in the data set on Rattus norvegicus (acute, oral, mortality); 16.1 mg/kg-day in the data set with Colinus virginianus (acute, oral, mortality); 1.8 µg/piece in the data set on Apis mellifera (dermal); 2.07 µg/piece with Apis mellifera (oral, unspecified). In the data set with Colinus virginianus (reproduction developmental), the NOEL is ≥ 1.1 mg/kg-day. The LR50 in the data set on Aphidius rhopalosiphi is 3.75 g/ha; with Typhlodromus pyri it was 44.4 g/ha.
